{"source": "ChEMBL document CHEMBL4392842", "about": "“Structural hybridization of pyrrolidine-based T-type calcium channel inhibitors and exploration of their analgesic effects in a neuropathic pain model” (Bioorg Med Chem Lett, 2019)", "key": {"[1]": {"molecular_target": "T1, Voltage-dependent T-type calcium channel subunit alpha-1G (Homo sapiens, UniProt O43497)", "T1 sequence (O43497 whole entry)": "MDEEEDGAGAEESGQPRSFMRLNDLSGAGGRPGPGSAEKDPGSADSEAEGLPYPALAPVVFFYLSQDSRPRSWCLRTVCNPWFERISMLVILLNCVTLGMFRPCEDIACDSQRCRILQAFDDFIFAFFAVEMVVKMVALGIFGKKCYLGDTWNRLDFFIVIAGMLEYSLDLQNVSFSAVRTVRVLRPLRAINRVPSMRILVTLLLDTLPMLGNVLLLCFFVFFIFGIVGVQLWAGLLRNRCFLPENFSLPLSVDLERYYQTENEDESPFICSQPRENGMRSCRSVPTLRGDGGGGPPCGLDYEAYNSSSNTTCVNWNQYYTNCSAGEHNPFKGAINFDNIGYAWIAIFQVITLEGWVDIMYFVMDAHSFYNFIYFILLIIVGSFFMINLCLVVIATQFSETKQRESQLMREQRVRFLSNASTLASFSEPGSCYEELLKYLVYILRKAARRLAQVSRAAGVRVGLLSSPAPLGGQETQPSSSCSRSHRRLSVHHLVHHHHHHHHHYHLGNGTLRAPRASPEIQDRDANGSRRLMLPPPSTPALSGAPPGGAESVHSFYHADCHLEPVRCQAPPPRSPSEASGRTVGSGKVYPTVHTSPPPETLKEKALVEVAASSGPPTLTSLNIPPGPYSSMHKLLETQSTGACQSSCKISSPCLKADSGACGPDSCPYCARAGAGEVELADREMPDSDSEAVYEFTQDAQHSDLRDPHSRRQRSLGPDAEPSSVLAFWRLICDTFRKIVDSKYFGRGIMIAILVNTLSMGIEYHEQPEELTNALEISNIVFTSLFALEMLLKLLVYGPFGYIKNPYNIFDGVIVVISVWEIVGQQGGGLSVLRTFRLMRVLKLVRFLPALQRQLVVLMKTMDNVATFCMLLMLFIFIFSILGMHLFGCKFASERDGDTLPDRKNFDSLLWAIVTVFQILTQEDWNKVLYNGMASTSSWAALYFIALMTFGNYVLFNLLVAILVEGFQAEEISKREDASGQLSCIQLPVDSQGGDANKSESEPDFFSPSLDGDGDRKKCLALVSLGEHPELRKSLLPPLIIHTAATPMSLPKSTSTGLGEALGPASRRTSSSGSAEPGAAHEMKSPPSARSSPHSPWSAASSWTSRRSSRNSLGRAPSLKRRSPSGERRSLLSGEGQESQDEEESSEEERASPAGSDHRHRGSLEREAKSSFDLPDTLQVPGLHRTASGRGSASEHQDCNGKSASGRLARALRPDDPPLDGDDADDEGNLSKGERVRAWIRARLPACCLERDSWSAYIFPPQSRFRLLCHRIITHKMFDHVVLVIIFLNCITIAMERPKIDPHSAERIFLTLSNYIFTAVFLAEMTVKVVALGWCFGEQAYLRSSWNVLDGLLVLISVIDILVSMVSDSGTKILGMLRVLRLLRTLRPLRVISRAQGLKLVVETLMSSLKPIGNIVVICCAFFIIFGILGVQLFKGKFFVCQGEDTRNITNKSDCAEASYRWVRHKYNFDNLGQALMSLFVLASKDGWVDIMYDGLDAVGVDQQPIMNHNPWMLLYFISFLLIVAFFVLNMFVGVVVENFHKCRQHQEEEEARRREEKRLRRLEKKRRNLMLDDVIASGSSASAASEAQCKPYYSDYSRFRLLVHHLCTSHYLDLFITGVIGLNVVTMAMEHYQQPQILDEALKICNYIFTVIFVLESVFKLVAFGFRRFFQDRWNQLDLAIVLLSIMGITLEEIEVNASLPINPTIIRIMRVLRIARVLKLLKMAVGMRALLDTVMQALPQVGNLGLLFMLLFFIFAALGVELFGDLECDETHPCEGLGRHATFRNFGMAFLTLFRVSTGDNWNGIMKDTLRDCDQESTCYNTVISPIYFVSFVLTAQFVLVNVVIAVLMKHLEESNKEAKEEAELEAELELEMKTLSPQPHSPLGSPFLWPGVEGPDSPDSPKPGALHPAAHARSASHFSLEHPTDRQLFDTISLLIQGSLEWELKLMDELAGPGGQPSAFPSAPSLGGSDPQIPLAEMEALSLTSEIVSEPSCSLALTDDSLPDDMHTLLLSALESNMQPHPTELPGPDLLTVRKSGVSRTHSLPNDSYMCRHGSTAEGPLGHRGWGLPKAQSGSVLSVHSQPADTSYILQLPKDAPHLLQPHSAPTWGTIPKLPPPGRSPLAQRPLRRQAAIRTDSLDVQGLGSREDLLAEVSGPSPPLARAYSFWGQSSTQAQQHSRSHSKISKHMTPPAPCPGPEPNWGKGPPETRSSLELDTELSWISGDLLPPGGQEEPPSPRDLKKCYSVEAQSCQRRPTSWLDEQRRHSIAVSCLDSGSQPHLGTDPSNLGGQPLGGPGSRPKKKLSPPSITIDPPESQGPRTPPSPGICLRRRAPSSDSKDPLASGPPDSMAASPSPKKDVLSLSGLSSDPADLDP", "assay": "Inhibition of recombinant human Cav3.1 expressed in HEK293 cells assessed as reduction in KCl-induced increase in intracellular calcium level at 10 uM by fura-2 AM indicator based FDSS assay relative to control", "format": "cell-based"}, "[2]": {"molecular_target": "T2, Voltage-dependent T-type calcium channel subunit alpha-1H (Homo sapiens, UniProt O95180)", "assay": "Inhibition of Cav3.2 (unknown origin) assessed as reduction in KCl-induced increase in intracellular calcium level at 10 uM by fura-2 AM indicator based FDSS assay relative to control", "format": "cell-based"}, "[3]": {"assay": "Stability in human liver microsomes assessed as parent compound remaining measured after 30 mins", "format": "ADME, Microsome", "settings": "read-out: Stability"}, "[4]": {"molecular_target": "Voltage-gated inwardly rectifying potassium channel KCNH2 (Homo sapiens, UniProt Q12809)", "sequence (Q12809 whole entry)": "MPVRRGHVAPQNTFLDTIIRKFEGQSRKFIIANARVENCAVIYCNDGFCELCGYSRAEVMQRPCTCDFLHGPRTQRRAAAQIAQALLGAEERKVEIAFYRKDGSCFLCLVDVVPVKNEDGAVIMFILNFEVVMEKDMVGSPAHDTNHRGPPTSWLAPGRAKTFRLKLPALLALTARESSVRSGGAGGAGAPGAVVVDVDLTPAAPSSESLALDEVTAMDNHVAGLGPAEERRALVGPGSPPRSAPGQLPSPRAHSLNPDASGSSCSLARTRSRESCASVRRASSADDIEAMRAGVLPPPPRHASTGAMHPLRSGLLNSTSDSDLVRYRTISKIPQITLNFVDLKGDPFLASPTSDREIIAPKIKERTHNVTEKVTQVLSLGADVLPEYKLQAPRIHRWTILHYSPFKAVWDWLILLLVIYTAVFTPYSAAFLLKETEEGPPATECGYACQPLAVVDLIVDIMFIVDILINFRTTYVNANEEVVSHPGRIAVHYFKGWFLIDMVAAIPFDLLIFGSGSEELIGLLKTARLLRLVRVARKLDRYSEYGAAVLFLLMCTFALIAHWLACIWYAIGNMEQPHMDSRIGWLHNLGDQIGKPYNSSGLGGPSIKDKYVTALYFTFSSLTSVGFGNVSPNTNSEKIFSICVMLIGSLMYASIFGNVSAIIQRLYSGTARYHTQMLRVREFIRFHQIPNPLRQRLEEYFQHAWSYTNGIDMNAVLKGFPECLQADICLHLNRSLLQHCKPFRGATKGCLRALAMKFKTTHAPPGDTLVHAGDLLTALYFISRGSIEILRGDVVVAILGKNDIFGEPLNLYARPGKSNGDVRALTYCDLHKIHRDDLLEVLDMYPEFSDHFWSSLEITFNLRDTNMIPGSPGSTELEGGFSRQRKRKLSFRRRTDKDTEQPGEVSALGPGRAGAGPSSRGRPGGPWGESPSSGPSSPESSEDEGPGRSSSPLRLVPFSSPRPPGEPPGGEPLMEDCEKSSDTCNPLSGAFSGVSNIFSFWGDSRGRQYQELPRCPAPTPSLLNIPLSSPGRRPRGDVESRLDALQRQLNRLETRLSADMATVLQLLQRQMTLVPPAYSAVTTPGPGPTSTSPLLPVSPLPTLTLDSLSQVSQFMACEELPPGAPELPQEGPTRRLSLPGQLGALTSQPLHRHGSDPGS", "assay": "Inhibition of human ERG by whole-cell patch clamp method"}, "Rattus norvegicus [5]": {"system": "Rattus norvegicus", "assay": "Analgesic activity in Sprague-Dawley rat L5/L6 spinal nerve ligation-induced neuropathic pain model assessed as reversal of mechanical allodynia by measuring increase in paw withdrawal threshold to non-noxious mechanical stimuli at 100 mg/kg, po measured after 3 hrs relative to control", "format": "functional"}, "Rattus norvegicus [6]": {"system": "Rattus norvegicus", "assay": "Analgesic activity in Sprague-Dawley rat L5/L6 spinal nerve ligation-induced neuropathic pain model assessed as decrease in paw withdrawal threshold to non-noxious cold stimuli at 100 mg/kg, po measured after 5 hrs", "format": "functional, organism-based"}, "[7]": {"molecular_target": "T1, Voltage-dependent T-type calcium channel subunit alpha-1G", "assay": "Inhibition of recombinant human Cav3.1 expressed in HEK293 cells assessed as suppression of KCl-evoked current by whole-cell patch clamp method", "format": "cell-based"}, "[8]": {"molecular_target": "T2, Voltage-dependent T-type calcium channel subunit alpha-1H", "assay": "Inhibition of Cav3.2 (unknown origin) assessed as suppression of KCl-evoked current by whole-cell patch clamp method"}, "CYP2C19": {"molecular_target": "CYP2C19 (Homo sapiens, UniProt P33261)", "sequence (P33261 whole entry)": "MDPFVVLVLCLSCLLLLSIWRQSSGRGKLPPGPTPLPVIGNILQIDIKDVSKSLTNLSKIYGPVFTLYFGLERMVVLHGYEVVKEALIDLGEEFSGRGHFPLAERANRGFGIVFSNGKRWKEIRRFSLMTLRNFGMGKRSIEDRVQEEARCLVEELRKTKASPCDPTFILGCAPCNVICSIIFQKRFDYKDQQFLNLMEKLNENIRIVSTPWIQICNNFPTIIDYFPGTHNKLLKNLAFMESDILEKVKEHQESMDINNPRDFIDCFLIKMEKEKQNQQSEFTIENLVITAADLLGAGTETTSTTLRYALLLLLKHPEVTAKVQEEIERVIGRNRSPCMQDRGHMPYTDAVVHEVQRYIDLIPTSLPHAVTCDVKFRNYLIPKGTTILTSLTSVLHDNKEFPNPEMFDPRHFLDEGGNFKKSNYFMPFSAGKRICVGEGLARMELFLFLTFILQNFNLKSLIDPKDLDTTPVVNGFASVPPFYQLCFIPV", "assay": "Inhibition of CYP2C19 (unknown origin) assessed as residual activity at 10 uM relative to control", "format": "ADME", "settings": "read-out: Activity"}, "CYP1A2": {"molecular_target": "T3, CYP1A2 (Homo sapiens, UniProt P05177)", "T3 sequence (P05177 whole entry)": "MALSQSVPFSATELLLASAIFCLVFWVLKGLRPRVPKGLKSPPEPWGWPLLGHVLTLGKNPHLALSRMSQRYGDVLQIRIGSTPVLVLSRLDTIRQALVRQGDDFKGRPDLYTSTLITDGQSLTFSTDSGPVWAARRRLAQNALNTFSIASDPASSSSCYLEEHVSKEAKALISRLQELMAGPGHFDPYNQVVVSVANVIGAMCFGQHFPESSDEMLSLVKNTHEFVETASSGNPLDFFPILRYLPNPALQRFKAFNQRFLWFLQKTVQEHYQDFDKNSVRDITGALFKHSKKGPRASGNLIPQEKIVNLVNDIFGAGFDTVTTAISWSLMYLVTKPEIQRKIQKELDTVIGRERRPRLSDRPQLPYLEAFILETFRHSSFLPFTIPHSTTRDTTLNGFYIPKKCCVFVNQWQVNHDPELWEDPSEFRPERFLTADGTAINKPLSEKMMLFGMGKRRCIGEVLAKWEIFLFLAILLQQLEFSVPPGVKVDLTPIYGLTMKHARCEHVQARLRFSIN", "assay": "Inhibition of CYP1A2 (unknown origin) assessed as residual activity at 10 uM relative to control", "format": "ADME", "settings": "read-out: Activity"}, "CYP2D6": {"molecular_target": "CYP2D6 (Homo sapiens, UniProt P10635)", "sequence (P10635 whole entry)": "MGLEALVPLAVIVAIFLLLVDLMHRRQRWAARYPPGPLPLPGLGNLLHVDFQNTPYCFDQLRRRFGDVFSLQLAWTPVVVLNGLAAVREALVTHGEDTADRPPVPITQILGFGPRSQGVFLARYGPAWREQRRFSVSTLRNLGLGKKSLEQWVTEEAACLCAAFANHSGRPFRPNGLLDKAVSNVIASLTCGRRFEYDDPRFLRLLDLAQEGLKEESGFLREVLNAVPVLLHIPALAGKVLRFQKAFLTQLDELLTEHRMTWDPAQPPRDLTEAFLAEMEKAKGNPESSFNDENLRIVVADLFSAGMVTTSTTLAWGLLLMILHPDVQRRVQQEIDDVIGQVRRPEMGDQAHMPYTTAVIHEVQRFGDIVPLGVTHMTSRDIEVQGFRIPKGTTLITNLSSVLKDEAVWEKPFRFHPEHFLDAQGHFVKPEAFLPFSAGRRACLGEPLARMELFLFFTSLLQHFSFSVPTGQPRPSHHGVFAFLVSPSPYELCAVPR", "assay": "Inhibition of CYP2D6 (unknown origin) assessed as residual activity at 10 uM relative to control", "format": "ADME", "settings": "read-out: Activity"}, "CYP2C9": {"molecular_target": "CYP2C9 (Homo sapiens, UniProt P11712)", "assay": "Inhibition of CYP2C9 (unknown origin) assessed as residual activity at 10 uM relative to control", "format": "ADME", "settings": "read-out: Activity"}, "CYP3A4": {"molecular_target": "CYP3A4 (Homo sapiens, UniProt P08684)", "sequence (P08684 whole entry)": "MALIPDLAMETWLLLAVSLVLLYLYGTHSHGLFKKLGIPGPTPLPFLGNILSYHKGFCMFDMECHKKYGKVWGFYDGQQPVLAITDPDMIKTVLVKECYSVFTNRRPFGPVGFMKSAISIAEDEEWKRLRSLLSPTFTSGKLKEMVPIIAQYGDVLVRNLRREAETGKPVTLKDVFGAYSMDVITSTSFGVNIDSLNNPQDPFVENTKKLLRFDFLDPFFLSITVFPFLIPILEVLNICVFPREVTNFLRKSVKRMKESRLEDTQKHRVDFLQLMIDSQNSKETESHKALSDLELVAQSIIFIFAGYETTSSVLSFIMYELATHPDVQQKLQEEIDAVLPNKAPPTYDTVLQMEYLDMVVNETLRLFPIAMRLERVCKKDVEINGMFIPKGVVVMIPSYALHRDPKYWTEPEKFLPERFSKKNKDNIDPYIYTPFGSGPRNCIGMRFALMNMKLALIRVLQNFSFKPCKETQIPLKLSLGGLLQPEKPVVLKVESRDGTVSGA", "assay": "Inhibition of CYP3A4 (unknown origin) assessed as residual activity at 10 uM relative to control", "format": "ADME", "settings": "read-out: Activity"}, "Rattus norvegicus [9]": {"system": "Rattus norvegicus", "assay": "Analgesic activity in Sprague-Dawley rat L5/L6 spinal nerve ligation-induced neuropathic pain model assessed as decrease in paw withdrawal threshold to non-noxious cold stimuli at 100 mg/kg, po measured after 1 hr", "format": "functional, organism-based"}}, "note": "Activity calls are given as the source filed them."}
{"smiles": "CC(C)c1cc(C(=O)NC[C@H]2CCN(CCc3ccc(Cl)c(Cl)c3)C2)on1", "values": [{"measurement": "inhibition", "setting": "[1]", "result": 71.7, "unit": "%"}, {"measurement": "inhibition", "setting": "[2]", "result": 69.7, "unit": "%"}, {"measurement": "remaining at 0.5 h", "setting": "[3]", "result": 51.7, "unit": "%"}, {"measurement": "IC50", "setting": "[4]", "result": 1.53, "unit": "µM"}]}
{"smiles": "CC(C)c1cc(C(=O)NC[C@H]2CCN(C(=O)CC(C)(C)C)C2)on1", "values": [{"measurement": "inhibition", "setting": "[1]", "result": 23.1, "unit": "%"}, {"measurement": "inhibition", "setting": "[2]", "result": 17.8, "unit": "%"}]}
{"smiles": "COC(=O)C1=C(C)NC(C)=C(C(=O)NC[C@H]2CCN(CCc3ccc(Cl)c(F)c3)C2)C1c1cccc([N+](=O)[O-])c1", "note": "(stereo not given in full)", "values": [{"measurement": "inhibition", "setting": "[1]", "result": 80.3, "unit": "%"}, {"measurement": "inhibition", "setting": "[2]", "result": 69.7, "unit": "%"}, {"measurement": "remaining at 0.5 h", "setting": "[3]", "result": 2.13, "unit": "%"}, {"measurement": "IC50", "setting": "[4]", "result": 0.33, "unit": "µM"}]}
{"smiles": "NCC1(CC(=O)O)CCCCC1", "values": [{"measurement": "Activity", "setting": "Rattus norvegicus [5]", "result": "Active"}, {"measurement": "Activity", "setting": "Rattus norvegicus [6]", "result": "Active"}]}
{"smiles": "CC(C)c1cc(C(=O)NC[C@H]2CCN(CCc3ccc(Cl)c(F)c3)C2)on1", "values": [{"measurement": "inhibition", "setting": "[1]", "result": 59.9, "unit": "%"}, {"measurement": "inhibition", "setting": "[2]", "result": 50.1, "unit": "%"}, {"measurement": "remaining at 0.5 h", "setting": "[3]", "result": 26.2, "unit": "%"}, {"measurement": "IC50", "setting": "[4]", "result": 1.52, "unit": "µM"}]}
{"smiles": "CC(C)c1cc(C(=O)NC[C@H]2CCN(CCc3ccc(C(F)(F)F)cc3)C2)on1", "values": [{"measurement": "inhibition", "setting": "[1]", "result": 48.7, "unit": "%"}, {"measurement": "inhibition", "setting": "[2]", "result": 63.2, "unit": "%"}, {"measurement": "remaining at 0.5 h", "setting": "[3]", "result": 34.2, "unit": "%"}]}
{"smiles": "CC(C)c1cc(C(=O)NC[C@H]2CCNC2)on1", "values": [{"measurement": "inhibition", "setting": "[1]", "result": 11.4, "unit": "%"}, {"measurement": "inhibition", "setting": "[2]", "result": 8.36, "unit": "%"}]}
{"smiles": "CC(C)c1cc(C(=O)NC[C@H]2CCN(Cc3cccnc3)C2)on1", "values": [{"measurement": "inhibition", "setting": "[1]", "result": 2.4, "unit": "%"}, {"measurement": "inhibition", "setting": "[2]", "result": 11.6, "unit": "%"}]}
{"smiles": "CC(C)c1cc(C(=O)NC[C@H]2CCN(CCC(C)(C)C)C2)on1", "values": [{"measurement": "inhibition", "setting": "[1]", "result": 23.3, "unit": "%"}, {"measurement": "inhibition", "setting": "[2]", "result": 21.1, "unit": "%"}]}
{"smiles": "COC(=O)C1=C(C)NC(C)=C(C(=O)NC[C@H]2CCNC2)C1c1cccc([N+](=O)[O-])c1", "note": "(stereo not given in full)", "values": [{"measurement": "inhibition", "setting": "[1]", "result": 5.49, "unit": "%"}, {"measurement": "inhibition", "setting": "[2]", "result": 21.8, "unit": "%"}]}
{"smiles": "Cc1ccc(CCN2CC[C@H](CNC(=O)c3cc(C(C)C)no3)C2)cc1C(F)(F)F", "values": [{"measurement": "inhibition", "setting": "[1]", "result": 46.8, "unit": "%"}, {"measurement": "inhibition", "setting": "[2]", "result": 51.9, "unit": "%"}, {"measurement": "remaining at 0.5 h", "setting": "[3]", "result": 39.8, "unit": "%"}, {"measurement": "IC50", "setting": "[4]", "result": 1.9, "unit": "µM"}, {"measurement": "IC50", "setting": "[7]", "result": 5.13, "unit": "µM"}, {"measurement": "IC50", "setting": "[8]", "result": 7.61, "unit": "µM"}, {"measurement": "activity at 10 µM", "setting": "CYP2C19", "result": 50.4, "unit": "%"}, {"measurement": "activity at 10 µM", "setting": "CYP1A2", "result": 88.1, "unit": "%"}, {"measurement": "activity at 10 µM", "setting": "CYP2D6", "result": 31.2, "unit": "%"}, {"measurement": "activity at 10 µM", "setting": "CYP2C9", "result": 53.9, "unit": "%"}, {"measurement": "activity at 10 µM", "setting": "CYP3A4", "result": 33, "unit": "%"}, {"measurement": "Activity", "setting": "Rattus norvegicus [5]", "result": 80, "unit": "%"}, {"measurement": "Activity", "setting": "Rattus norvegicus [9]", "result": "Active"}, {"measurement": "Activity", "setting": "Rattus norvegicus [6]", "result": "Active"}]}
{"smiles": "CC(C)c1cc(C(=O)NC[C@H]2CCN(CCc3ccc(OC(F)(F)F)c(F)c3)C2)on1", "values": [{"measurement": "inhibition", "setting": "[1]", "result": 36.4, "unit": "%"}, {"measurement": "inhibition", "setting": "[2]", "result": 59.7, "unit": "%"}, {"measurement": "remaining at 0.5 h", "setting": "[3]", "result": 35.2, "unit": "%"}, {"measurement": "IC50", "setting": "[4]", "result": 0.16, "unit": "µM"}]}
{"smiles": "COC(=O)C1=C(C)NC(C)=C(C(=O)NC[C@H]2CCN(CCc3ccc(C)c(C(F)(F)F)c3)C2)C1c1cccc([N+](=O)[O-])c1", "note": "(stereo not given in full)", "values": [{"measurement": "inhibition", "setting": "[1]", "result": 78.3, "unit": "%"}, {"measurement": "inhibition", "setting": "[2]", "result": 65.2, "unit": "%"}, {"measurement": "remaining at 0.5 h", "setting": "[3]", "result": 0.63, "unit": "%"}, {"measurement": "IC50", "setting": "[4]", "result": 2.7, "unit": "µM"}]}
{"smiles": "COC(=O)C1=C(C)NC(C)=C(C(=O)NC[C@H]2CCN(CCc3ccc(Cl)c(Cl)c3)C2)C1c1cccc([N+](=O)[O-])c1", "note": "(stereo not given in full)", "values": [{"measurement": "inhibition", "setting": "[1]", "result": 32.5, "unit": "%"}, {"measurement": "inhibition", "setting": "[2]", "result": 31.3, "unit": "%"}, {"measurement": "remaining at 0.5 h", "setting": "[3]", "result": 2.87, "unit": "%"}]}
{"smiles": "COC(=O)C1=C(C)NC(C)=C(C(=O)NC[C@H]2CCN(CCc3ccc(OC(F)(F)F)c(F)c3)C2)C1c1cccc([N+](=O)[O-])c1", "note": "(stereo not given in full)", "values": [{"measurement": "inhibition", "setting": "[1]", "result": 26.4, "unit": "%"}, {"measurement": "inhibition", "setting": "[2]", "result": 33.7, "unit": "%"}, {"measurement": "remaining at 0.5 h", "setting": "[3]", "result": 0.25, "unit": "%"}, {"measurement": "IC50", "setting": "[4]", "result": 1.47, "unit": "µM"}]}
{"smiles": "COC(=O)C1=C(C)NC(C)=C(C(=O)NC[C@H]2CCN(CCc3ccc(C(F)(F)F)cc3)C2)C1c1cccc([N+](=O)[O-])c1", "note": "(stereo not given in full)", "values": [{"measurement": "inhibition", "setting": "[1]", "result": 43.5, "unit": "%"}, {"measurement": "inhibition", "setting": "[2]", "result": 34.1, "unit": "%"}, {"measurement": "remaining at 0.5 h", "setting": "[3]", "result": 2.01, "unit": "%"}, {"measurement": "IC50", "setting": "[4]", "result": 1.48, "unit": "µM"}]}
